Measured values taken from patent publication US5019394A, “Liposome composition and its production” (Takeda Chemical Industries, Ltd., priority 1987, dated 1991).
Structures can show the parent of a compound that is named as a salt.

Columns and labels:
Format in all cases: physicochemical
[1] = Krafft point of anionic surfactants
[2] = dissolution of SMT in aqueous 6-CF solution; conditions: 30 mg in 10 ml, pH 7, room temperature
Protocol: 270 mg of DPPC and 30 mg of DSPC were dissolved in 70 ml of 1:1 mixture of chloroform and isopropylether in a 1--1 beaker. To 10 ml of an aqueous solution of 6-carboxyfluorescein (6-CF), pH 7, which had been prepared beforehand so that the osmotic pressure might be the same as that of the physiological saline, 30 mg of sodium stearoylmethyltaurine (SMT) was added at room temperature. […] Then this solution was added to the solution of the phospholipid in an organic solvent, and emulsified by a probe type sonicator (Ohtake, Japan), to give a w/o type emulsion. Sonication at 50 watt for 30 seconds was repeated 10 times. This emulsion was charged to a rotary evaporator to evaporate off the organic solvent at 60° C. under reduced pressure, to give REV. The pressure in the evaporator was reduced greatly in the initial stage, but then adjusted in the course of evaporation of the organic solvent to prevent bumping. A small amount of the organic solvent remained in REV was further evaporated off by blowing nitrogen gas. […] The entrapment ratio of 6CF in this liposome composition was 33.2% as determined by quantification of 6-Cf entrapped in liposome (Note 1).

[3] = observed phase transition temperature of phospholipids; conditions: phospholipid

observed phase transition temperature [3] | Compound | Krafft point [1] [°C] | also measured
27.2 °C | CCCCCCCCCCCCCCCC(=O)OCC(COP(=O)([O-])OCC[N+](C)(C)C)OC(=O)CCCCCCCCCCCCC (centres unmarked) [PMPC, palmitoylmyristoylphosphatidyl choline] | – | –
47.4 °C | CCCCCCCCCCCCCCCCCC(=O)OC(COC(=O)CCCCCCCCCCCCCCC)COP(=O)([O-])OCC[N+](C)(C)C (centres unmarked) [PSPC, palmitoylstearoylphosphatidyl choline] | – | –
44.0 °C | CCCCCCCCCCCCCCCCCC(=O)OCC(COP(=O)([O-])OCC[N+](C)(C)C)OC(=O)CCCCCCCCCCCCCCC (centres unmarked) [SPPC, stearoylpalmitoylphosphatidyl choline] | – | –

More lines, now with the values behind:

Compound | observed phase transition temperature [3] | Krafft point [1] [°C] | also measured
CCCCCCCCCCCCCCCCCC(=O)N(C)CCS(=O)(=O)O.[Na] | – | 58 | solubility of SMT in aqueous 6-CF solution [2]: almost insoluble
CCCCCCCCCCCCCC(=O)OC[C@H](COP(=O)([O-])OCC[N+](C)(C)C)OC(=O)CCCCCCCCCCCCC [DMPC, dimyristoylphosphatidyl choline] | 23.9 °C | – | –
CCCCCCCCCCCCCC(=O)OCC(COP(=O)(O)OCCN)OC(=O)CCCCCCCCCCCCC (centres unmarked) [DMPE, dimyristoylphosphatidyl ethanolamine] | 50 °C | – | –
CCCCCCCCCCCCCC(=O)OCC(COP(=O)(O)OCC(O)CO)OC(=O)CCCCCCCCCCCCC (centres unmarked) [DMPG, dimyristoylphosphatidyl glycrine] | 23 °C | – | –
CCCCCCCCCCCCCC(=O)OCC(COP(=O)(O)OCC(N)C(=O)O)OC(=O)CCCCCCCCCCCCC (centres unmarked) [DMPS, dimyristoylphosphatidyl serine] | 38 °C | – | –
CCCCCCCCCCCCCCCC(=O)OC[C@H](COP(=O)([O-])OCC[N+](C)(C)C)OC(=O)CCCCCCCCCCCCCCC [DPPC, dipalmitoylphosphatidyl choline] | 41.4 °C | – | –
CCCCCCCCCCCCCCCC(=O)OCC(COP(=O)(O)OCCN)OC(=O)CCCCCCCCCCCCCCC (centres unmarked) [DPPE, dipalmitoylphosphatidyl ethanolamine] | 60 °C | – | –
CCCCCCCCCCCCCCCC(=O)OCC(COP(=O)(O)OCC(O)CO)OC(=O)CCCCCCCCCCCCCCC (centres unmarked) [DPPG, dipalmitoylphosphatidyl glycerine] | 41 °C | – | –
CCCCCCCCCCCCCCCC(=O)OCC(COP(=O)(O)OCC(N)C(=O)O)OC(=O)CCCCCCCCCCCCCCC (centres unmarked) [DPPS, dipalmitoylphosphatidyl serine] | 51 °C | – | –
CCCCCCCCCCCCCCCCCC(=O)OCC(COP(=O)([O-])OCC[N+](C)(C)C)OC(=O)CCCCCCCCCCCCCCCCC (centres unmarked) [DSPC, distearoylphosphatidyl choline] | 54.9 °C | – | –
CCCCCCCCCCCCCCCCCC(=O)OCC(COP(=O)(O)OCCN)OC(=O)CCCCCCCCCCCCCCCCC (centres unmarked) [DSPE, distearoylphosphatidyl ethanolamine] | above 60 °C | – | –
CCCCCCCCCCCCCCCCCC(=O)OCC(COP(=O)(O)OCC(O)CO)OC(=O)CCCCCCCCCCCCCCCCC (centres unmarked) [DSPG, distearoylphosphatidyl glycerine] | 55 °C | – | –
CCCCCCCCCCCCCCCCCC(=O)OCC(COP(=O)(O)OCC(N)C(=O)O)OC(=O)CCCCCCCCCCCCCCCCC (centres unmarked) [DSPS, distearoylphosphatidyl serine] | ≥ 50 °C | – | –
CCCCCCCCCCCCCCCC(=O)OC(COC(=O)CCCCCCCCCCCCC)COP(=O)([O-])OCC[N+](C)(C)C (centres unmarked) [MPPC, myristoylpalmitoylphosphatidyl choline] | 35.3 °C | – | –
CCCCCCCCCCCCS(=O)(=O)[O-].[Na+] [sodium dodecanesulfonate] | – | 38 | –
CCCCCCCCCCCCOS(=O)(=O)[O-].[Na+] [sodium dodecyl sulfate, reference compound] | – | 9 | –
CCCCCCCCCCCCc1ccc(S(=O)(=O)O)cc1 [sodium dodecylbenzenesulfonate] | – | 40 | –
CCCCCCCCCCCCCCCCCS(=O)(=O)[O-].[Na+] [sodium heptadecanesulfonate] | – | 62 | –
CCCCCCCCCCCCCCCCS(=O)(=O)[O-].[Na+] [sodium hexadecanesulfonate] | – | 57 | –
CCCCCCCCCCCCCCCCOS(=O)(=O)[O-].[Na+] [sodium hexadecyl sulfate] | – | 43 | –

Compound | observed phase transition temperature [3] | Krafft point [1] [°C] | also measured
CCCCCCCCCCCCCCCCc1ccc(S(=O)(=O)O)cc1 [sodium hexadecylbenzenesulfonate] | – | 46 | –
CCCCCCCCCCCCCCCCCCS(=O)(=O)[O-].[Na+] [sodium octadecanesulfonate] | – | 70 | –
CCCCCCCCCCCCCCCCCCOCCOCCOS(=O)(=O)O [sodium octadecyl diether sulfate ester] | – | 40 | –
CCCCCCCCCCCCCCCCCCOS(=O)(=O)[O-].[Na+] [sodium octadecyl sulfate] | – | 58 | –
CCCCCCCCCCCCCCCCCCc1ccc(S(=O)(=O)O)cc1 [sodium octadecylbenzenesulfonate] | – | 56 | –
CCCCCCCCCCCCCCCCCCOCCOS(=O)(=O)O [sodium octadecylether sulfate ester] | – | 46 | –
CCCCCCCCCCCCCCCC(=O)NCCOS(=O)(=O)O [sodium palmitoyl ethanolamide sulfate ester] | – | 42 | –
CCCCCCCCCCCCCCCC(=O)NCCCOS(=O)(=O)O [sodium palmitoyl propanolamide sulfate ester] | – | 47 | –
CCCCCCCCCCCCCCCC(=O)N(C)CCS(=O)(=O)O.[Na] [sodium palmitoylmethyltaurine] | – | 43 | –
CCCCCCCCCCCCCCCC(=O)NCCS(=O)(=O)O.[Na] [sodium palmitoyltaurine] | – | 43 | –
CCCCCCCCCCCCCCCS(=O)(=O)[O-].[Na+] [sodium pentadecanesulfonate] | – | 48 | –
CCCCCCCCCCCCCCCCCC(=O)NCCOS(=O)(=O)O [sodium stearoyl ethanolamide sulfate ester] | – | 53 | –
CCCCCCCCCCCCCCCCCC(=O)NCCCOS(=O)(=O)O [sodium stearoyl propanolamide sulfate ester] | – | 57 | –
CCCCCCCCCCCCCCCCCC(=O)NCCS(=O)(=O)O.[Na] [sodium stearoyltaurine] | – | 58 | –
CCCCCCCCCCCCCCS(=O)(=O)[O-].[Na+] [sodium tetradecanesulfonate] | – | 48 | –
CCCCCCCCCCCCCCc1ccc(S(=O)(=O)O)cc1 [sodium tetradecylbenzenesulfonate] | – | 43 | –
dipalmitoyl sphingomyelin [DPSM] | 41 °C | – | –
distearoyl sphingomyelin [DSSM] | 57 °C | – | –
sodium hexadecyl disulfate ester | – | 39 | –
sodium octadecyl disulfate ester | – | 45 | –
